Reference: the METLIN SMRT retention time set (Domingo-Almenara et al. 2019)

Test: gradient 5% acetonitrile 3 min, to 50% in 2 min, to 85% in 15 min, held 3 min, 100 µL/min
Details: column: Zorbax Extend-C18 2.1 x 50 mm; eluents: water / acetonitrile, 0.1% formic acid
How it was run: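 Data were gathered over 3 months by HPLC coupled to a quadrupole time-of-flight mass spectrometer, operated in positive and negative ionization mode. Mixtures of ~100 pure standards ran on a Zorbax Extend-C18 column (2.1 × 50 mm, 1.8 μm) at 100 μL/min, with water and acetonitrile each containing 0.1% formic acid and dead and dwell volumes of 40 μL and 900 μL. Retention time was read from adduct peaks picked by computer and checked manually.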

| Compound | RP-LC retention time [s] |
| --- | --- |
| COCCc1noc(C2Cc3ccccc3N2C(=O)Nc2ccc3c(c2)OCCO3)n1 (configuration not stated) | 860 |
| O=C(Nc1cccc(F)c1)C1CCCN(S(=O)(=O)c2cc(-c3noc(C4CCC4)n3)cs2)C1 (configuration not stated) | 1190 |
| COc1cc2c(Nc3ccc(Br)cc3F)ncnc2cc1OCC1CCN(C)CC1 | 644 |
| O=C(NCc1ccc(Cl)cc1)C1CCN(c2cnc(N3CCCC3)nc2)CC1 | 712 |
| Cc1cc(NC(=O)c2cc(-c3cccs3)[nH]n2)sn1 | 672 |
| CC(=O)NCC(=O)N1CCCn2cc(-c3ccc4c(c3)OCO4)nc21 | 487 |
| Cc1nc(CNC(=O)C2CCN(C(=O)Nc3cccc(Br)c3)CC2)cs1 | 707 |
| O=C(Cc1ccccc1F)N1C[C@H]2CNC(=O)[C@]23CCCC[C@@H]13 | 683 |
| CCC1=NS(=O)(=O)c2cccnc2N1c1ccc(F)c(C)c1 | 897 |
| CCc1noc(NC(C)=O)c1-c1ccc(C)c(S(=O)(=O)Nc2cc(C)ccc2OC)c1 | 884 |
| O=C(NCc1ccc2c(c1)OCO2)c1ccc(-c2cc(N3CCOCC3)ncn2)cc1 | 643 |
| O=C(CCC(=O)N1CCNc2ccccc2C1)N1CCOCC1 | 585 |
| Cc1nc(-c2cn(Cc3cccc(F)c3)nn2)no1 | 748 |
| CC1Oc2ccc(-c3csc(NC(=O)c4cccnc4)n3)cc2N(C)C1=O (configuration not stated) | 773 |
| COc1ccc(-c2nc(Cn3cnc4nc5c(cc4c3=O)CCCC5)c(C)o2)c(OC)c1 | 845 |
| Cc1ccc(N2CC(c3noc(-c4ccc(C)c(F)c4)n3)CC2=O)cc1 (configuration not stated) | 1100 |
| CN1C(=O)C2CCCCN2c2ccc(C(=O)NCCN3CCOCC3)cc21 (configuration not stated) | 582 |
| Cn1c(=O)c(SCC(=O)NCc2ccccc2F)nc2ccccc21 | 785 |
| O=S(=O)(c1ccc(Br)cc1)N1CCC(c2noc(-c3ccccc3)n2)CC1 | 1180 |

| Compound | RP-LC retention time [s] |
| --- | --- |
| CCc1nc(-c2csc(S(=O)(=O)N3CCC(C(=O)NCc4ccccc4Cl)CC3)c2)no1 | 984 |
| O=C(Nc1ccccc1Cl)N1CCN(c2cnn3cnnc3c2)CC1 | 625 |
| Cc1ccccc1-n1c(=O)c2sccc2n(Cc2nc(-c3ccccc3)no2)c1=O | 1000 |
| O=C(O)C1c2ccccc2CC(=O)N1Cc1ccccc1 (configuration not stated) | 723 |
| Cc1ccccc1NC(=O)NC1CCN(c2ccc(F)cc2)C1=O (configuration not stated) | 792 |
| Cc1cc(N2CCCC2)n2nc(CN3CCN(c4cccc(Cl)c4)CC3)nc2n1 | 663 |
| CN1C(=O)CCc2cc(NC(=O)Cc3c(F)cccc3Cl)ccc21 | 784 |
| CC(=O)N1CCc2sc(S(=O)(=O)N3CCN(c4cccc(Cl)c4)CC3)cc2C1 | 957 |
| COCCNCc1c(C(=O)O)c(C)n(Cc2ccc(Cl)cc2)c1C | 704 |
| CCCn1cc(CCNS(=O)(=O)c2ccc(C)c(Cl)c2)c2cccnc21 | 939 |
| Cc1ccc(N2CCN(CC(O)COc3cccc(C)c3)CC2)cc1 (configuration not stated) | 782 |
| CNC(=O)c1c2c(nc3ccc(F)cc13)CCCC2 | 571 |
| O=C(Cn1c(=O)c2cc(-c3cccs3)nn2c2ncccc21)Nc1ccc(F)cc1F | 872 |
| Cc1nn(CC(=O)NCCCN2CCc3ccccc3C2)c(=O)c2noc(C)c12 | 597 |
| Cc1nn(CC(=O)NC2CCCCCC2)c(=O)c2c(-n3cccc3)n(-c3cccc(F)c3)nc12 | 1090 |
| Cc1ccn2cc(-c3ccc(NC(=O)c4ccc(C(F)(F)F)cc4)cc3)nc2n1 | 739 |
| COc1c(C(=O)N2CCN(C3CCCCC3)CC2)sc2ccc(F)cc12 | 685 |
| CC(C)n1cnc(S(=O)(=O)N2CCC(C(=O)N3CCN(c4cccc(Cl)c4)CC3)CC2)c1 | 876 |
